In PubChem BioAssay (NCI):
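Briefly, cells in 96-well plates were exposed to five compound concentrations for 48 h, and endpoints were estimated by linear interpolation. TGI: concentration producing complete growth inhibition.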

How the values were obtained:
Experiment in all cases: inhibition of tumour cell growth, NCI panel, 48 h
[1] = test system: CCRF-CEM leukemia
[2] = test system: XF 498 CNS
[3] = test system: SF-539 CNS
[4] = test system: HOP-18 NSCLC
[5] = test system: UACC-257 melanoma
[6] = test system: RPMI-8226 leukemia
[7] = test system: M19-MEL melanoma
[8] = test system: DLD-1 colon
[9] = test system: M14 melanoma
[10] = test system: NCI-H23 lung
[11] = test system: HCT-15 colon
[12] = test system: SF-268 CNS
[13] = test system: OVCAR-8 ovarian
[14] = test system: ACHN renal
[15] = test system: SK-MEL-5 melanoma
[16] = test system: LXFL 529 NSCLC
[17] = test system: SK-MEL-28 melanoma
[18] = test system: HL-60(TB) leukemia
[19] = test system: HT29 colon
[20] = test system: NCI-H522 lung

| Structure (SMILES) | TGI [1] | TGI [2] | TGI [3] | TGI [4] | TGI [5] | TGI [6] | TGI [7] | TGI [8] | TGI [9] | TGI [10] | TGI [11] | TGI [12] | TGI [13] | TGI [14] | TGI [15] | TGI [16] | TGI [17] | TGI [18] | TGI [19] | TGI [20] |
| --- | --- | --- | --- | --- | --- | --- | --- | --- | --- | --- | --- | --- | --- | --- | --- | --- | --- | --- | --- | --- |
| Cn1c(=O)c(C#N)c(O)c2cc3ccccc3nc21 | > 100 µM | > 100 µM | > 100 µM | > 100 µM | > 100 µM | > 100 µM | > 100 µM | > 100 µM | > 100 µM | > 100 µM | > 100 µM | > 100 µM | > 100 µM | > 100 µM | > 100 µM | > 100 µM | > 100 µM | > 100 µM |  |  |
| Cc1c(N(Cc2ccccc2)Cc2ccccc2)nc(S(C)(=O)=O)nc1S(C)(=O)=O | 5.15 µM | 3.16 µM | 25.7 µM | 17.3 µM | 3.76 µM | 7.61 µM | 2.89 µM | 3.59 µM | 4.3 µM | 3.35 µM | 6.4 µM | 3.74 µM | 3.29 µM | 16.4 µM | 25.3 µM | 3.45 µM |  | 4.28 µM | 3.67 µM | 3.14 µM |
| COc1cc(O)c2c(=O)c(O)c(-c3ccc(O)c(O)c3)oc2c1 | 33 µM |  |  |  | 46.1 µM | > 100 µM |  |  | 42.6 µM |  | > 100 µM | 73.7 µM | 75.9 µM | 24.9 µM | 58.6 µM |  | > 100 µM | 12.8 µM | 48.4 µM | 25.5 µM |
